Measurements reported in patent US9295717B2, “Vaccine composition comprising 5′-cap modified RNA” (BIONTECH AG, priority 2009, dated 2016).
“And” between values parts separate entries of the source, which are not always exact repeats. Equal entries are not always repeated. “Also recorded” adds a separate entry of the source.

Key:
[1] = system: immature dendritic cells (iDCs); test: Luciferase expression after electroporation of 5′-capped luciferase RNA into immature dendritic cells; format: cell-based, human; conditions: for transl. efficiency: maximal slope of curve; for transl. efficiency / relative total protein expression: m7GpppG RNA set to 1, mean ± SD; for relative total protein expression: luciferase, 72 h time course
[2] = system: mature dendritic cells (mDCs); test: Luciferase expression after electroporation of 5′-capped luciferase RNA into mature dendritic cells; format: cell-based, human; conditions: for transl. efficiency / protein expression (in words): luciferase RNA; for transl. efficiency: maximal slope of curve; for transl. efficiency / relative total protein expression: m7GpppG RNA set to 1, mean ± SD; for relative total protein expression: luciferase, 72 h time course; for time of max.: time point of maximal luciferase expression, mean ± SD
immature dendritic cells [3] = test: d2eGFP expression (flow cytometry) after introduction of capped RNA into immature dendritic cells; format: cell-based, human; conditions: iDCs
immature dendritic cells [4] = test: Luciferase activity with increasing RNA amounts (40 vs 20 pmol) in immature dendritic cells; format: cell-based; conditions: iDCs
Procedure: (§1) FIG. 3. Competition for translation between ARCA- and beta-S-ARCA(D1)-capped RNAs. Immature dendritic cells (iDCs) were electroporated with (A) increasing amounts of luciferase-encoding RNAs or (B) the indicated amounts of luciferase- and d2eGFP-encoding mRNAs, which were co-transcriptionally capped either with ARCA or beta-S-ARCA(D1) as indicated. The luciferase activity was measured after 2, 4, 8, 24, 48, and 72 hours. Shown is (A) the ratio between the luciferase activities obtained after electroporation with 40 and 20 pmol luciferase-encoding RNAs (±SD of two independent experiments), and (B) the relative luciferase activity compared to cells electroporated with only luciferase-encoding RNA without RNA (set to 1 for both ARCA- and beta-S-ARCA(D1)-capped RNA).
The results described so far indicate that the translational efficiency of an mRNA is influenced in dendritic cells by the type of the cap structure at its 5′ end. This is most likely due to differences in the efficiency by which the translational machinery is recruited to the different 5′ cap-structures. To corroborate this, we next analyzed (i) the effect of the RNA dose that is used for electroporation into immature dendritic cells, and (ii) the impact of a second RNA co-electroporated into immature dendritic cells on the protein expression. By increasing the amount of the electroporated mRNA, it is expected that at some point one or more translation factor(s) will become rate limiting in the cell, which will then restrict the amount of protein that can be synthesized from the exogenous RNA. Similarly, a second RNA will compete for the translation machinery, again influencing the translation efficiency.
Increasing amounts (20 pmol and 40 pmol) of luciferase-encoding RNAs co-transcriptionally capped with either ARCA or beta-S-ARCA(D1) were electroporated into immature dendritic cells, and the luciferase activity was measured after 2, 4, 8, 24, 48, and 72 hours. […] At this time-point, the level of luciferase protein was only about 1.6-fold as high as when half the amount of RNA was used. This ratio decreased even further 48 and 72 hours after electroporation (1.4- and 1.2-fold, respectively).

[5] = system: immature dendritic cells (iDCs); test: RNA stability (half-life) by real time RT-PCR of d2eGFP RNA in immature dendritic cells; format: cell-based, human
[6] = system: inguinal lymph nodes of mice; test: In vivo luciferase imaging after intranodal injection of luciferase RNA
Procedure: FIG. 5. Effect of the 5′-cap structure on protein expression in vivo. Mice (n=9) have been injected intranodally with the same amount of luciferase encoding RNA with ARCA or beta-S-ARCA(D1) at the 5′-end (as indicated). The luciferase activity (given in RLU) has been measured after 2, 4, 8, 24, 48, and 72 hours. (A) Images of whole animals at the indicated time points of a representative mouse, which has been injected with ARCA or beta-S-ARCA(D1) RNA are shown. (B) Mean±standard error of the mean as measured in the time course. The significance has been determined using statistical analyses (*: P<0.005 and **: P<0.02).
RNA which is administered in this way is primarily taken up by immature dendritic cells. Thus, we have investigated whether stronger protein expression is also observed in lymph nodes for beta-S-ARCA(D1) RNA compared to RNAs with other cap structures (analyzed exemplarily for ARCA which we have applied in the earlier studies). […] After uptake of the RNA by cells of the lymph nodes and translation of the encoded luciferase, protein expression was quantified by measuring luciferase activity using in vivo imaging. […] 25 min after luciferin injection, photons emitted were quantified for an integration time of 1 min. […] To quantify the bioluminescence, regions of interest (ROI) were drawn and total flux (photons/sec, p/s) in ROI was measured. […]

CD8^+-T-cells = test: De novo T-cell priming after intranodal RNA immunization (tetramer staining); format: in vivo; conditions: mice; intranodal immunization day 0 and day 3; day 8
Procedure: FIG. 6. Effect of the 5′-cap structure on de novo priming of T-cells after intranodal immunization with RNA. Mice (n=5) have been immunized by intranodal injection twice […] (day 0 and day 3) with the same amount of RNA encoding a specific peptide antigen which either carries ARCA or beta-S-ARCA(D1) at the 5′-end. The frequency of tetramer positive CD8^+-cells was determined on day 8 using tetramer analysis. (A) Representative dot plots of cells from the peripheral blood and the spleen of mice which have been immunized with ARCA or beta-S-ARCA(D1) RNA (as indicated). (B) Average number of tetramer positive CD8^+-cells±standard error of the mean (in %) as measured on day 8. The significance was determined using statistical analyses (*: P<0.075).
Mice were immunized by intranodal injection of naked RNA twice […] (at day 0 and at day 3) which encodes a specific antigen with the above modifications. On day 8 the frequency of antigen-specific T-cells in peripheral blood and in the spleen was determined using tetramer staining. As shown in FIG. 6 about 5% of the CD8^+-T-cells in peripheral blood and about 6% of the CD8^+-T-cells in the spleen were tetramer positive after duplicate immunization with ARCA RNA. Using beta-S-ARCA(D1) RNA more than 12% and 13% tetramer positive CD8^+-T-cells in peripheral blood and in the spleen, respectively, were measured.

Dcp2 = Dcp2 (Homo sapiens, UniProt Q8IU60); conditions: background, earlier work; cited from earlier work
mature dendritic cells = test: d2eGFP expression (flow cytometry) after introduction of capped RNA into mature dendritic cells; format: cell-based, human; conditions: mDCs
HC11 cells = conditions: background, earlier work; cited from earlier work
immature dendritic cells [7] = test: Competition for translation: co-electroporation of d2eGFP RNA with luciferase RNA in immature dendritic cells; format: cell-based; conditions: iDCs; same amount of d2eGFP RNA; after 24, 48, and 72 hours vs luciferase RNA only
Procedure: as §1
The results described so far indicate that the translational efficiency of an mRNA is influenced in dendritic cells by the type of the cap structure at its 5′ end. This is most likely due to differences in the efficiency by which the translational machinery is recruited to the different 5′ cap-structures. To corroborate this, we next analyzed (i) the effect of the RNA dose that is used for electroporation into immature dendritic cells, and (ii) the impact of a second RNA co-electroporated into immature dendritic cells on the protein expression. […]

[8] = time point of maximal luciferase expression (functional RNA stability), mean ± SD

Substance | total protein expression (in words) ([1]; luciferase RNA) | translation efficiency increase in comparison to RNA with m^7GpppG ([1]; luciferase RNA) | transl. efficiency ([1]; luciferase RNA) | relative total protein expression [1] | transl. efficiency [2] | relative total protein expression [2] | time of max. [2] [h] | time of max. [1, 8] | protein expression (in words) [2] | other results
m2^(7,2′-O)GppspG(D1) [beta-S-ARCA(D1)] | highest total protein expression | about 3.4 fold | 3.36 ± 0.09 | 13.094 ± 0.307 | 3.05 ± 0.14 | 3.884 ± 0.032 | 20.1 ± 0.1 |  |  | expression increase (factor) compared to RNA with ARCA or post-transcriptionally modified RNA ([1]; luciferase RNA): around 3; total protein expression increase compared to RNA synthesized in presence of m^7GpppG ([1]; luciferase RNA): more than 13 fold; total protein expression increase compared to beta-S-ARCA(D2) RNA ([1]; luciferase RNA): about 2 fold; total protein expression (in words) (immature dendritic cells [3]): highest total protein expression; signal with 40 pmol relative to 20 pmol RNA (immature dendritic cells [4]; each time-point (2-72 hours)): about twice as high; RNA stability / degradation (in words) [5]: most stable RNA; protein expression compared to RNA with ARCA (in words) ([6]; 2, 4, 8, 24, 48, and 72 hours after intranodal application): higher at each time point; expression throughout the entire time course (integral of the curve), increase vs ARCA RNA ([6]; intranodal injection, luciferase, 2-72 hours): about 8 fold; tetramer positive CD8^+-T-cells in peripheral blood (CD8^+-T-cells): more than 12%; tetramer positive CD8^+-T-cells in the spleen (CD8^+-T-cells): > 13%; Dcp2 cleavage compared to RNA with unmodified ARCA 5′-cap (Dcp2): 71%
m2^(7,2′-O)GppspG(D2) [beta-S-ARCA(D2)] | second best total expression | about 3.5 fold | 3.53 ± 0.17 | 6.570 ± 0.075 | 3.30 ± 0.03 | 4.042 ± 0.053 | 19.4 ± 0.1 | 12.8 ± 0.0 h | highest protein expression | total protein expression (in words) (mature dendritic cells): highest total protein expression; Dcp2 cleavage compared to RNA with unmodified ARCA 5′-cap (Dcp2): 6%; translation / total expression in HC11 cells (in words) (HC11 cells): more efficiently translated in HC11 cells; also recorded: strongest total expression
ApppG | do not result in any significant expression |  | 0.01 ± 0.00 | 0.022 ± 0.001 | 0.01 ± 0.00 | 0.008 ± 0.000 |  |  | do not result in protein expression | 
GpppG | do not result in any significant expression |  | 0.18 ± 0.01 | 0.221 ± 0.001 | 0.31 ± 0.02 | 0.593 ± 0.005 | 27.5 ± 0.5 | 11.5 ± 0.0 h | do not result in protein expression | 
m^7GpppG [m7GpppG] |  |  | 1.00 ± 0.04 | 1.000 ± 0.007 | 1.00 ± 0.05 | 1.000 ± 0.003 | 16.0 ± 0.3 | 8.1 ± 1.1 h |  | time of max. (hours) ([1]; time point of maximal luciferase expression (functional RNA stability), mean ± SD, listed as m^7GpppG): around 8 hours
m^7Gppppm^7G [m7Gppppm7G] | even lower than that of RNA which has been transcribed in presence of m^7GpppG |  | 0.20 ± 0.10 | 0.404 ± 0.004 | 0.56 ± 0.04 | 0.176 ± 0.001 | 6.0 ± 0.3 | 4.9 ± 0.1 h | poorly translated | RNA stability / degradation (in words) [5]: most unstable RNA
m2^(7,3′-O)GpppG [ARCA] |  | about 2.5 fold | 2.52 ± 0.19 | 4.777 ± 0.042 | 2.16 ± 0.00 | 2.526 ± 0.015 | 17.5 ± 0.3 | 12 h and 12.6 ± 0.1 h |  | level of luciferase protein with 40 pmol relative to 20 pmol RNA (immature dendritic cells [4]; 24 hours after electroporation): about 1.6 fold; level of luciferase protein with 40 pmol relative to 20 pmol RNA (immature dendritic cells [4]; 48 hours after electroporation): 1.4 fold; level of luciferase protein with 40 pmol relative to 20 pmol RNA (immature dendritic cells [4]; 72 hours after electroporation): 1.2 fold; effect of co-electroporated d2eGFP RNA on expression of luciferase RNA (immature dendritic cells [7]): decreased the expression; tetramer positive CD8^+-T-cells in peripheral blood (CD8^+-T-cells): about 5%; tetramer positive CD8^+-T-cells in the spleen (CD8^+-T-cells): about 6%
